Biological target: human Nav1.7 (Homo sapiens (Human), UniProt Q15858)
Test: FLIPR membrane potential dye assay (alternative fluorescence assay)
Assay type: cell-based
Settings: recombinant Nav1.7/HEK293 cells
Experimental: In vitro assays were performed in a recombinant cell line expressing cDNA encoding the alpha subunit (Nav1.7, SCN9a, PN1, NE) of human Nav1.7 (Accession No. NM_002977). The cell line was provided by investigators at Yale University (Cummins et al, J. Neurosci. 18(23): 9607-9619 (1998)). For dominant selection of the Nav1.7-expressing clones, the expression plasmid co-expressed the neomycin resistance gene. The cell line was constructed in the human embryonic kidney cell line, HEK293, under the influence of the CMV […] promoter, and stable clones were selected using limiting dilution cloning and antibiotic selection using the neomycin analogue, G418. Recombinant beta and gamma subunits were not introduced into this cell line. Additional cell lines expressing recombinant Nav1.7 cloned from other species can also be used, alone or in combination with various beta subunits, gamma subunits or chaperones.
A fluorescence indicator that can be used in alternative fluorescence assays is the blue version membrane potential dye (MDS, Molecular Devices, Sunnyvale, Calif.), a dye that detects changes in molecules following a change in membrane potential. An increase in fluorescence is expected if agonist stimulation provokes a change in membrane potential. Cells expressing Nav1.7 or other sodium channels are incubated with the membrane potential dye 30-60 minutes before the fluorescence assay. In the case of the KCl pre-stimulation version of the assay, the dye and all other components are washed out immediately before the assay, and the dye is then replaced. In the version lacking KCl pre-stimulation, the dye remains on the cells and is not washed out or replaced. The dye is stored in the dark as a lyophilized powder, and then an aliquot dissolved in assay buffer to form a 20×-concentrated stock solution that can be used for several weeks.
In the fluorescence assays, two agonists were used in combination, namely 1) veratridine; and 2) the venom from the yellow scorpion, Leiurus quinquestriatus hebraeus. Veratridine is an alkaloid small molecule that facilitates the capture of channel openings by inhibiting inactivation, and the scorpion venom is a natural preparation that includes peptide toxins selective for different subsets of voltage-gated sodium channels. These scorpion toxins inhibit the fast inactivation of their cognate target channels. Stock solutions of the agonists were prepared to 40 mM in DMSO (veratridine) and 1 mg/mL in dH2O (scorpion venom), and then diluted to make a 4× or 2× stock (depending on the particular assay) in assay buffer, the final concentration being 100 μM (veratridine) and 10 μg/mL (scorpion venom). Both of the agonists were purchased from Sigma Aldrich, St. Louis, Mo.
Test compounds were dissolved in DMSO to yield 10 mM stock solutions. The stock solutions were further diluted using DMSO in 1:3 serial dilution steps with 10 points (10,000 μM, […], 370 μM, 123 μM, 41 μM, 14 μM, 4.6 μM, 1.5 μM and 0.5 μM). The stock solutions were further diluted in assay buffer (1:125) as 4× stock serial dilutions with a DMSO concentration of 0.8% (final [DMSO], in the assay, from the compounds component=0.2%), so that the compounds' final concentrations in the assay were 20 μM, 6.7 μM, 2.2 μM, 0.74 μM, 0.25 μM and 0.08 μM, 0.03 μM, 0.01 μM, 0.003 μM and 0.001 μM. If a particular test article appeared to be especially potent, then the concentration curve was adjusted, e.g., to 10-fold lower concentrations, in order to perform the dose-response in a more relevant concentration range. Compound dilutions were added during the dye-loading and pre-stimulation step, and then again during the fluorescence assay, early in the kinetic read.
The data were analyzed according to methods known to those skilled in the art or using the GraphPad® Prism Program, version 4.0 or higher (available from GraphPad Software, San Diego, Calif.) to determine the IC50 value for the test article. […]

human Nav1.7, sequence (Q15858 other isoform, or with tags, fused parts or gaps): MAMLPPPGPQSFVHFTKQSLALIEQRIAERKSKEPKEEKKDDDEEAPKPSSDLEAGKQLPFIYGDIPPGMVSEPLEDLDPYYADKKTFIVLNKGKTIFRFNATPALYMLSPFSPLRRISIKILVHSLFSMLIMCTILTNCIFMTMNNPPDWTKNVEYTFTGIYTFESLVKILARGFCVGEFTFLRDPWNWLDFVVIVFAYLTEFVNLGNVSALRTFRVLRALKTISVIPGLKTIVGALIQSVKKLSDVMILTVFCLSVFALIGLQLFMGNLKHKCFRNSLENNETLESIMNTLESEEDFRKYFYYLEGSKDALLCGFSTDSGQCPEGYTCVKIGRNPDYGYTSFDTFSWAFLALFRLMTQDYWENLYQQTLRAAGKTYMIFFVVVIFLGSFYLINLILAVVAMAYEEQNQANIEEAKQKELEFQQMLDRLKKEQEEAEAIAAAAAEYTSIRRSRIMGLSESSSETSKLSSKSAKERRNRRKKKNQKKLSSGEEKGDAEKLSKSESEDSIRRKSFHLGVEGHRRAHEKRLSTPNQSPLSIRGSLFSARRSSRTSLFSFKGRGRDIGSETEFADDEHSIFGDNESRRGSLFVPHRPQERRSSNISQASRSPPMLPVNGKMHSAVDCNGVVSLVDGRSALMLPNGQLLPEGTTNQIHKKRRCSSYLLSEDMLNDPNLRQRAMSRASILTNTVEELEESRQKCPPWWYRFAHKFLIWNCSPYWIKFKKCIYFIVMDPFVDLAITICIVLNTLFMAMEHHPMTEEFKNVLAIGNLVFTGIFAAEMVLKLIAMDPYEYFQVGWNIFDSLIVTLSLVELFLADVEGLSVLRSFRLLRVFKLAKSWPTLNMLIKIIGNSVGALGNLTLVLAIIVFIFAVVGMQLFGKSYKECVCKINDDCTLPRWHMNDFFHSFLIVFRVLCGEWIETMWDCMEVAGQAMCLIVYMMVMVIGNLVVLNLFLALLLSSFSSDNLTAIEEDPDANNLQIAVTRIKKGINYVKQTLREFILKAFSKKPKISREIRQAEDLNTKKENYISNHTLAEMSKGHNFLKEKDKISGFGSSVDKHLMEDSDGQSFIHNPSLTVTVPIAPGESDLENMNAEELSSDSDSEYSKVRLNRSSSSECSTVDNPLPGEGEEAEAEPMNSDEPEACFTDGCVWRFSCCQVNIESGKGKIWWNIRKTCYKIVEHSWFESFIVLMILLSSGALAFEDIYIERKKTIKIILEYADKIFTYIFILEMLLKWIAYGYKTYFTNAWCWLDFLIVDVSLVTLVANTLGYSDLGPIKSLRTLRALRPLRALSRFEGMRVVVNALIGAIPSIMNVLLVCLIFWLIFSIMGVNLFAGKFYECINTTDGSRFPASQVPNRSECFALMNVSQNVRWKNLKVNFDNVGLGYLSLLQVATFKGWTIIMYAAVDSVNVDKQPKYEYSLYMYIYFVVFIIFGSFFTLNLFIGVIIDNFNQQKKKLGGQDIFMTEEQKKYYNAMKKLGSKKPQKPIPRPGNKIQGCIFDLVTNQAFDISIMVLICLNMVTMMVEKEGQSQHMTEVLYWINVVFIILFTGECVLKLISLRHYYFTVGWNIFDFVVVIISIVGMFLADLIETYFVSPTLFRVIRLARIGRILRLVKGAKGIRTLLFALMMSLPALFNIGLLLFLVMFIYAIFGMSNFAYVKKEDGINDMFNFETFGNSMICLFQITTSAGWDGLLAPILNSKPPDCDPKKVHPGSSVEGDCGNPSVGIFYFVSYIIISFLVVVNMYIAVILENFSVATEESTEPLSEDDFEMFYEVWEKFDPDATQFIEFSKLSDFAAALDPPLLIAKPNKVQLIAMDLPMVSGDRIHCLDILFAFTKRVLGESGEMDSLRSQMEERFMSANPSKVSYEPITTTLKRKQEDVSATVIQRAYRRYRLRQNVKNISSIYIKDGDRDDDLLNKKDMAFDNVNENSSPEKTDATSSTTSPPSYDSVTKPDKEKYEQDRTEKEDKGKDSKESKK

SMILES | IC50 [µM]
Cn1nccc1-c1cc(C(F)(F)F)ccc1Oc1ccc(-c2nc(C(N)=O)cc([C@H](O)CO)n2)cc1 [compound 122, (S)-6-(1,2-dihydroxyethyl)-2-(4-(2-(1-methyl-1H-pyrazol-5-yl)-4-(trifluoromethyl)phenoxy)phenyl) pyrimidine-4-carboxamide] | 0.079 ± 0.015
Cn1nccc1-c1cc(C(F)(F)F)ccc1Oc1ccc(-c2nccc(C(N)=O)n2)cc1 [compound 125, 2-(4-(2-(1-methyl-1H-pyrazol-5-yl)-4-(trifluoromethyl)phenoxy)phenyl) pyrimidine-4-carboxamide] | 0.311 ± 0.006
Cn1nccc1-c1cc(C(F)(F)F)ccc1Oc1ccc(-c2nc(N[C@H]3CCNC3=O)cc(C(N)=O)n2)cc1 [compound 126, (S)-2-(4-(2-(1-methyl-1H-pyrazol-5-yl)-4-(trifluoromethyl)phenoxy)phenyl)-6-((2-oxopyrrolidin-3-yl)amino)pyrimidine-4-carboxamide] | 0.288 ± 0.045
NC(=O)c1cc(CCn2ccnc2)nc(-c2ccc(Oc3ccc(C(F)(F)F)cc3CN3CCOCC3)cc2)n1 [compound 127, 6-(2-(1H-imidazol-1-yl)ethyl)-2-(4-(2-(morpholinomethyl)-4-(trifluoromethyl)phenoxy)phenyl) pyrimidine-4-carboxamide] | 0.486 ± 0.032
CCN(CC)Cc1cc(C(F)(F)F)ccc1Oc1ccc(-c2nc(C(N)=O)cc(C(=O)O)n2)cc1 [compound 131, 6-carbamoyl-2-(4-(2-((diethylamino)methyl)-4-(trifluoromethyl)phenoxy)phenyl) pyrimidine-4-carboxylic acid] | > 20
NC(=O)c1cc(C(=O)O)nc(-c2ccc(Oc3ccc(C(F)(F)F)cc3CN3CCOCC3)cc2)n1 [compound 132, 6-carbamoyl-2-(4-(2-(morpholinomethyl)-4-(trifluoromethyl)phenoxy)phenyl) pyrimidine-4-carboxylic acid] | 9.8 ± 0.365
CCN(CC)Cc1cc(C(F)(F)F)ccc1Oc1ccc(-c2nc(C(N)=O)cc([C@@H](O)CO)n2)cc1 [compound 133, (R)-2-(4-(2-((diethylamino)methyl)-4-(trifluoromethyl)phenoxy)phenyl)-6-(1,2-dihydroxyethyl)pyrimidine-4-carboxamide] | 0.699 ± 0.045
Cn1nccc1-c1cc(C(F)(F)F)ccc1Oc1ccc(-c2cc([C@H](O)CO)cc(C(N)=O)n2)cc1 [compound 135, (S)-4-(1,2-dihydroxythyl)-6-(4-(2-(1-methyl-1H-pyrazol-5-yl)-4-(trifluoromethyl)phenoxy)phenyl) picolinamide] | 0.294 ± 0.054
NC(=O)c1cc([C@H](O)CO)cc(-c2ccc(Oc3ccc(Cl)cc3-c3ccnn3C3CNC3)cc2)n1 [compound 136, (S)-6-(4-(2-(1-(azetidin-3-yl)-1H-pyrazol-5-yl)-4-chlorophenoxy)phenyl)-4-(1,2-dihydroxyethyl)picolinamide] | > 20
C[C@H](Nc1cc(C(N)=O)nc(-c2ccc(Oc3ccc(C(F)(F)F)cc3-c3ccnn3C)cc2)n1)C(N)=O [compound 138, (S)-6-((1-amino-1-oxopropan-2-yl)amino)-2-(4-(2-(1-methyl-1H-pyrazol-5-yl)-4-(trifluoromethyl)phenoxy)phenyl) pyrimidine-4-carboxamide] | 0.6 ± 0.077
O=C(c1cc(C(F)(F)F)ccc1Oc1ccc(-c2cccc([C@H](O)CO)n2)cc1)N1CC[C@H](O)C1 [compound 170, (2-(4-(6-((S)-1,2-dihydroxyethyl)pyridin-2-yl)phenoxy)-5-(trifluoromethyl)phenyl)((S)-3-hydroxypyrrolidin-1-yl)methanone] | > 20

The next lines start with the values.

IC50 [µM] | SMILES
0.149 ± 0.056 | Cn1nccc1-c1cc(C(F)(F)F)ccc1Oc1ccc(-c2cccc(C(N)=O)n2)cc1 [compound 123, 6-(4-(2-(1-methyl-1H-pyrazol-5-yl)-4-(trifluoromethyl)phenoxy)phenyl) picolinamide]
0.367 ± 0.028 | CCN(CC)Cc1cc(C(F)(F)F)ccc1Oc1ccc(-c2nc(CCOC(C)=O)cc(C(N)=O)n2)cc1 [compound 124, 2-(6-carbmoyl-2-(4-(2-((diethylamino)methyl)-4-(trifluoromethyl)phenoxy)phenyl)pyrimidin-4-yl)ethyl acetate]
0.684 ± 0.034 | CN(C)c1ncc(-c2cc(C(F)(F)F)ccc2Oc2ccc(-c3nc(N[C@H]4CCNC4=O)cc(C(N)=O)n3)cc2)cn1 [compound 128, (S)-2-(4-(2-(2-(dimethylamino)pyrimidin-5-yl)-4-(trifluoromethyl)phenoxy)phenyl)-6-((2-oxopyrrolidin-3-yl)amino)pyrimidine-4-carboxamide]
0.702 ± 0.035 | CN(C)c1cnc(-c2cc(C(F)(F)F)ccc2Oc2ccc(-c3nc(N[C@H]4CCNC4=O)cc(C(N)=O)n3)cc2)cn1 [compound 129, (S)-2-(4-(2-(5-(dimethylamino)pyrazin-2-yl)-4-(trifluoromethyl)phenoxy)phenyl)-6-((2-oxopyrrolidin-3-yl)amino)pyrimidine-4-carboxamide]
1.28 ± 0.135 | CCN(CC)Cc1cc(C(F)(F)F)ccc1Oc1ccc(-c2nc(C(N)=O)cc([C@H](O)CO)n2)cc1 [compound 130, (S)-2-(4-(2-((diethylamino)methyl)-4-(trifluoromethyl)phenoxy)phenyl)-6-(1,2-dihydroxyethyl)pyrimidine-4-carboxamide]
0.393 ± 0.048 | C[C@H](Nc1cc(C(N)=O)nc(-c2ccc(Oc3ccc(C(F)(F)F)cc3-c3cnc(N(C)C)cn3)cc2)n1)C(N)=O [compound 134, (S)-6-((1-amino-1-oxopropan-2-yl)amino)-2-(4-(2-(5-(dimethylamino)pyrazin-2-yl)-4-(trifluoromethyl)phenoxy)phenyl) pyrimidine-4-carboxamide]
> 20 | NC(=O)c1cc(N[C@H]2CCNC2=O)nc(-c2ccc(Oc3ccc(Cl)cc3-c3ccnn3C3CNC3)cc2)n1 [compound 137, (S)-2-(4-(2-(1-(azetidin-3-yl)-1H-pyrazol-5-yl)-4-chlorophenoxy)phenyl)-6-((2-oxopyrrolidin-3-yl)amino)pyrimidine-4-carboxamide]
10 to 20 | C[C@H](Nc1cc(C(N)=O)nc(-c2ccc(Oc3ccccc3-c3ccnn3C)cc2)n1)C(N)=O [compound 139, (S)-6-((1-amino-1-oxopropan-2-yl)amino)-2-(4-(2-(1-methyl-1H-pyrazol-5-yl)phenoxy)phenyl)-pyrimidine-4-carboxamide]
4.23 ± 0.479 | C[C@H](Nc1cc(C(N)=O)nc(-c2ccc(Oc3ccccc3-c3ccnn3C)cc2)n1)C(N)=O [compound 140, (S)-6-((1-amino-1-oxopropan-2-yl)amino)-2-(4-(2-(1-methyl-1H-pyrazol-5-yl)phenoxy)phenyl)-pyrimidine-4-carboxamide]
0.45 ± 0.053 | Cn1nccc1-c1cc(Cl)ccc1Oc1ccc(-c2nc(N[C@H]3CCNC3=O)cc(C(N)=O)n2)cc1 [compound 141, (S)-2-(4-(4-chloro-2-(1-methyl-1H-pyrazol-5-yl)phenoxy)phenyl)-6-((2-oxopyrrolidin-3-yl)amino)-pyrimidine-4-carboxamide]
> 20 | O=C(NC[C@@H](O)CO)c1cc(C(F)(F)F)ccc1Oc1ccc(-c2cccc([C@H](O)CO)n2)cc1 [compound 167, 2-(4-(6-((S)-1,2-dihydroxyethyl)pyridin-2-yl)phenoxy)-N-((R)-2,3-dihydroxypropyl)-5-(trifluoromethyl)benzamide]
0.519 ± 0.083 | CCN(CC)C(=O)c1cc(C(F)(F)F)ccc1Oc1ccc(-c2cccc([C@H](O)CO)n2)cc1 [compound 168, (S)-2-(4-(6-(1,2-dihydroxyethyl)pyridin-2-yl)phenoxy)-N,N-diethyl-5-(trifluoromethyl)benzamide]
1.55 ± 0.286 | CCN(C)C(=O)c1cc(C(F)(F)F)ccc1Oc1ccc(-c2cccc([C@H](O)CO)n2)cc1 [compound 169, (S)-2-(4-(6-(1,2-dihydroxy-ethyl)pyridin-2-yl)phenoxy)-N-ethyl-N-methyl-5-(trifluoro-methyl)benzamide]
